Reference: patent US9593122B2, “Substituted pyrazolylpyrazole derivative and use of same as herbicide” (KYOYU AGRI CO., LTD., priority 2013, dated 2017)

What was measured:
Assay type in all cases: in vivo
Echinochloa crus-galli = experiment: Paddy herbicidal activity test; conditions: irrigated paddy pot, treated at 3.5 leaf stage of Echinochloa crus-galli, 30 days
Description: (§1) Rice paddy soil was filled into a 1/10000 are pot followed by the addition of suitable amounts of water and chemical fertilizer, kneading, seeding with Echinochloa crus-galli, Monochoria vaginalis and Scirpus juncoides and maintaining in an irrigated state at a water depth of 3 cm.
(§2) Wettable powder of Target Compound (I) shown in Table 1 prepared in compliance with the preparation examples were diluted with a suitable amount of water, rice plants in the 2.0 leaf stage were transplanted during 3.5 leaf stage of Echinochloa crus-galli, and treated by dropping in chemical in the prescribed amount per are using a pipette.
(§3) After treating for 30 days in a glass greenhouse at an average atmospheric temperature of 30° C., the herbicidal efficacy thereof was investigated.
(§4) Evaluation of herbicidal efficacy was carried out by comparing growth inhibition rate (%) with an untreated group, while evaluation of phytotoxicity was carried out by comparing growth inhibition rate (%) with the state of a complete eradication group, and were evaluated at 11 levels indicated below.

Monochoria vaginalis = experiment: Paddy herbicidal activity test; conditions: irrigated paddy pot, 30 days
Description: as §1, §2, §3, §4

Scirpus juncoides = experiment: Paddy herbicidal activity test; conditions: irrigated paddy pot, 30 days
Description: as §1, §2, §3, §4

Amaranthus retroflexus [1] = experiment: Farming soil treatment test; conditions: soil surface spray prior to weed growth, 30 days
Description: (§5) Field soil was filled into a 1/6000 are pot followed by seeding with Digitaria ciliaris, Chenopodium album and Amaranthus retroflexus and covering with soil.
(§6) Wettable powder of compounds of formula (I) shown in Table 1 prepared in compliance with the preparation examples were diluted with water to the prescribed amount of chemical and uniformly sprayed onto each soil surface layer using 10 liters of sprayed water per are prior to weed growth following seeding.
as §3
(§7) Evaluation of herbicidal efficacy is carried out in the same manner as the above-mentioned Test Example 1.

Chenopodium album [2] = experiment: Farming soil treatment test; conditions: soil surface spray prior to weed growth, 30 days
Description: as §5, §6, §3, §7

Digitaria ciliaris [3] = experiment: Farming soil treatment test; conditions: soil surface spray prior to weed growth, 30 days
Description: as §5, §6, §3, §7

Amaranthus retroflexus [4] = experiment: Weed foliar treatment test; conditions: foliar spray, 3 weeks
Description: (§8) Soil was filled into a 1/6000 are pot followed by seeding with Digitaria ciliaris, Chenopodium album and Amaranthus retroflexus, covering with soil, and cultivating in a glass greenhouse at an average atmospheric temperature of 25° C.
(§9) Wettable powder of Target Compound (I) shown in Table 1 prepared in compliance with the preparation examples were diluted with water to the prescribed amount of chemical and uniformly sprayed onto the weeds using 15 liters of sprayed water per are when Digitaria ciliaris had grown to the 1.0 to 2.0 leaf stage.
(§10) After treating for 3 weeks in a glass greenhouse at an average atmospheric temperature of 25° C., the herbicidal efficacy thereof was investigated.
(§11) Evaluation of herbicidal efficacy was carried out in the same manner as the above-mentioned Test Example 1.

Chenopodium album [5] = experiment: Weed foliar treatment test; conditions: foliar spray, 3 weeks
Description: as §8, §9, §10, §11

Digitaria ciliaris [6] = experiment: Weed foliar treatment test; conditions: foliar spray at 1.0 to 2.0 leaf stage of Digitaria ciliaris, 3 weeks
Description: as §8, §9, §10, §11

| SMILES | Echinochloa crus-galli herbicidal efficacy (growth inhibition level) (Echinochloa crus-galli; 1g a.i./10a) | Echinochloa crus-galli herbicidal efficacy (growth inhibition level) (Echinochloa crus-galli; 5g a.i./10a) | Monochoria vaginalis herbicidal efficacy (growth inhibition level) (Monochoria vaginalis; 1g a.i./10a) | Monochoria vaginalis herbicidal efficacy (growth inhibition level) (Monochoria vaginalis; 5g a.i./10a) | Scirpus juncoides herbicidal efficacy (growth inhibition level) (Scirpus juncoides; 1g a.i./10a) | Scirpus juncoides herbicidal efficacy (growth inhibition level) (Scirpus juncoides; 5g a.i./10a) | Amaranthus retroflexus herbicidal efficacy (growth inhibition level) (Amaranthus retroflexus [1]; 5g a.i./10a) | Amaranthus retroflexus herbicidal efficacy (growth inhibition level) (Amaranthus retroflexus [1]; 10g a.i./10a) | Chenopodium album herbicidal efficacy (growth inhibition level) (Chenopodium album [2]; 5g a.i./10a) | Chenopodium album herbicidal efficacy (growth inhibition level) (Chenopodium album [2]; 10g a.i./10a) | Digitaria ciliaris herbicidal efficacy (growth inhibition level) (Digitaria ciliaris [3]; 5g a.i./10a) | Digitaria ciliaris herbicidal efficacy (growth inhibition level) (Digitaria ciliaris [3]; 10g a.i./10a) | Amaranthus retroflexus herbicidal efficacy (growth inhibition level) (Amaranthus retroflexus [4]; 5g a.i./10a) | Amaranthus retroflexus herbicidal efficacy (growth inhibition level) (Amaranthus retroflexus [4]; 10g a.i./10a) | Chenopodium album herbicidal efficacy (growth inhibition level) (Chenopodium album [5]; 5g a.i./10a) | Chenopodium album herbicidal efficacy (growth inhibition level) (Chenopodium album [5]; 10g a.i./10a) | Digitaria ciliaris herbicidal efficacy (growth inhibition level) (Digitaria ciliaris [6]; 5g a.i./10a) | Digitaria ciliaris herbicidal efficacy (growth inhibition level) (Digitaria ciliaris [6]; 10g a.i./10a) |
| --- | --- | --- | --- | --- | --- | --- | --- | --- | --- | --- | --- | --- | --- | --- | --- | --- | --- | --- |
| N#Cc1cnn(-c2nn3c(c2Cl)CCCC3)c1N(C/C=C\Cl)C(=O)C(F)(F)F [Compound 21] | 9 (9: 90% to less than 100%) | 9 (9: 90% to less than 100%) | 9 (9: 90% to less than 100%) | 9 (9: 90% to less than 100%) | 8 (8: 80% to less than 90%) | 10 (10: 100%) | 10 (10: 100%) | 10 (10: 100%) | 10 (10: 100%) | 10 (10: 100%) | 10 (10: 100%) | 10 (10: 100%) | 10 (10: 100%) | 10 (10: 100%) | 10 (10: 100%) | 10 (10: 100%) | 10 (10: 100%) | 10 (10: 100%) |
| CC(C)=CCNc1c([N+](=O)[O-])cnn1-c1nn2c(c1Cl)CCCC2 [Compound 35] | 9 (9: 90% to less than 100%) | 9 (9: 90% to less than 100%) | 9 (9: 90% to less than 100%) | 10 (10: 100%) | 8 (8: 80% to less than 90%) | 10 (10: 100%) | – | – | – | – | – | – | – | – | – | – | – | – |
| C=CCN(C(=O)C(F)(F)F)c1c(C#N)cnn1-c1nn2c(c1Cl)CCCC2 [Compound 17] | 9 (9: 90% to less than 100%) | 10 (10: 100%) | 8 (8: 80% to less than 90%) | 8 (8: 80% to less than 90%) | 9 (9: 90% to less than 100%) | 9 (9: 90% to less than 100%) | – | – | – | – | – | – | – | – | – | – | – | – |
| CC=CCNc1c([N+](=O)[O-])cnn1-c1nn2c(c1Cl)CCCC2 (mixture of isomers) [Compound 34] | 9 (9: 90% to less than 100%) | 9 (9: 90% to less than 100%) | 9 (9: 90% to less than 100%) | 9 (9: 90% to less than 100%) | 8 (8: 80% to less than 90%) | 8 (8: 80% to less than 90%) | – | – | – | – | – | – | – | – | – | – | – | – |
| CC=CCNc1c(C#N)cnn1-c1nn2c(c1Br)CCCC2 (mixture of isomers) [Compound 47] | 9 (9: 90% to less than 100%) | 10 (10: 100%) | 8 (8: 80% to less than 90%) | 9 (9: 90% to less than 100%) | 7 (7: 70% to less than 80%) | 8 (8: 80% to less than 90%) | – | – | – | – | – | – | – | – | – | – | – | – |
| N#Cc1cnn(-c2nn3c(c2Cl)CCCC3)c1NCCC(F)=C(F)F [Compound 6] | 9 (9: 90% to less than 100%) | 9 (9: 90% to less than 100%) | 7 (7: 70% to less than 80%) | 8 (8: 80% to less than 90%) | 8 (8: 80% to less than 90%) | 8 (8: 80% to less than 90%) | – | – | – | – | – | – | – | – | – | – | – | – |
| C=C(C)CNc1c([N+](=O)[O-])cnn1-c1nn2c(c1Cl)CCCC2 [Compound 31] | 9 (9: 90% to less than 100%) | 9 (9: 90% to less than 100%) | 9 (9: 90% to less than 100%) | 9 (9: 90% to less than 100%) | 7 (7: 70% to less than 80%) | 8 (8: 80% to less than 90%) | – | – | – | – | – | – | – | – | – | – | – | – |
| O=C(N(C/C=C\Cl)c1c([N+](=O)[O-])cnn1-c1nn2c(c1Cl)CCCC2)C(F)(F)F [Compound 39] | 9 (9: 90% to less than 100%) | 10 (10: 100%) | 7 (7: 70% to less than 80%) | 8 (8: 80% to less than 90%) | 8 (8: 80% to less than 90%) | 8 (8: 80% to less than 90%) | – | – | – | – | – | – | – | – | – | – | – | – |
| C=CCCN(C(=O)C(F)(F)F)c1c(C#N)cnn1-c1nn2c(c1Br)CCCC2 [Compound 50] | 9 (9: 90% to less than 100%) | 10 (10: 100%) | 7 (7: 70% to less than 80%) | 9 (9: 90% to less than 100%) | 7 (7: 70% to less than 80%) | 8 (8: 80% to less than 90%) | – | – | – | – | – | – | – | – | – | – | – | – |
| C=CCCNc1c(C#N)cnn1-c1nn2c(c1Cl)CCCC2 [Compound 5] | 9 (9: 90% to less than 100%) | 10 (10: 100%) | 9 (9: 90% to less than 100%) | 9 (9: 90% to less than 100%) | 7 (7: 70% to less than 80%) | 8 (8: 80% to less than 90%) | – | – | – | – | – | – | – | – | – | – | – | – |
| CC=CCNc1c([N+](=O)[O-])cnn1-c1nn2c(c1Br)CCCC2 (mixture of isomers) [Compound 57] | 9 (9: 90% to less than 100%) | 10 (10: 100%) | 8 (8: 80% to less than 90%) | 9 (9: 90% to less than 100%) | 7 (7: 70% to less than 80%) | 8 (8: 80% to less than 90%) | – | – | – | – | – | – | – | – | – | – | – | – |
| C=CCCNc1c(C#N)cnn1-c1nn2c(c1Br)CCCC2 [Compound 42] | 8 (8: 80% to less than 90%) | 9 (9: 90% to less than 100%) | 7 (7: 70% to less than 80%) | 8 (8: 80% to less than 90%) | 8 (8: 80% to less than 90%) | 8 (8: 80% to less than 90%) | – | – | – | – | – | – | – | – | – | – | – | – |
| N#Cc1cnn(-c2nn3c(c2Br)CCCC3)c1NCC(Cl)=CCl (mixture of isomers) [Compound 46] | 7 (7: 70% to less than 80%) | 8 (8: 80% to less than 90%) | 7 (7: 70% to less than 80%) | 8 (8: 80% to less than 90%) | 7 (7: 70% to less than 80%) | 8 (8: 80% to less than 90%) | – | – | – | – | – | – | – | – | – | – | – | – |
